Data as given in the supplement of paper PMC10883282.
± gives the standard deviation of the averaged measurements.

Tests used:
Assay in all cases: relative viability vs DMSO control (72 h) (fraction); higher = more viable cells
[1] = test system: SK-ES-1
In short: (§1)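 Sarcoma cell lines went into 384-well plates at densities chosen to reach 80–90% confluence. After 24 h, each well received 2.5 µl of serially diluted compound, with source plates running from 10 mM to 0.0002 mM, and the plates were kept 72 h at 37 °C, 5% CO2, alongside 0.1% DMSO vehicle and a 5 µM positive control. Relative viability was derived from ATPLite readings as percent growth and averaged over up to triplicate wells. The data were then rescaled so that 1 stands for full and 0 for none.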

[2] = test system: G401
In short: as §1

[3] = test system: VA-ES-BJ
In short: as §1

[4] = test system: HT1080
In short: as §1

[5] = test system: SK-LMS-1
In short: as §1

[6] = test system: RD-ES
In short: as §1

[7] = test system: SW982
In short: as §1

[8] = test system: KHOS-NP
In short: as §1

[9] = test system: A204
In short: as §1

[10] = test system: HS729
In short: as §1

[11] = test system: SW684
In short: as §1

[12] = test system: SW872
In short: as §1

CO[C@H]1C[C@@H]2CC[C@@H](C)[C@@](O)(O2)C(=O)C(=O)N2CCCC[C@H]2C(=O)O[C@H]([C@H](C)C[C@@H]2CC[C@@H](OC(=O)C(C)(CO)CO)[C@H](OC)C2)CC(=O)[C@H](C)/C=C(\C)[C@@H](O)[C@@H](OC)C(=O)[C@H](C)C[C@H](C)/C=C/C=C/C=C/1C [Temsirolimus]
Details | relative viability
[1], 0.00017 µM | 0.959 ± 0.019
[1], 0.00051 µM | 0.904 ± 0.031
[1], 0.00152 µM | 0.8013 ± 0.0064
[1], 0.00457 µM | 0.707 ± 0.018
[1], 0.01372 µM | 0.64 ± 0.06
[1], 0.04115 µM | 0.579 ± 0.012
[1], 0.1235 µM | 0.52 ± 0.017
[1], 0.3704 µM | 0.538 ± 0.04
[1], 1.111 µM | 0.519 ± 0.017
[1], 3.333 µM | 0.432 ± 0.024
[1], 10 µM | 0.126 ± 0.034
[2], 0.00017 µM | 0.945 ± 0.038
[2], 0.00051 µM | 0.917 ± 0.049
[2], 0.00152 µM | 0.869 ± 0.048
[2], 0.00457 µM | 0.82 ± 0.064
[2], 0.01372 µM | 0.766 ± 0.033
[2], 0.04115 µM | 0.706 ± 0.022
[2], 0.1235 µM | 0.665 ± 0.011
[2], 0.3704 µM | 0.637 ± 0.025
[2], 1.111 µM | 0.621 ± 0.0071
[2], 3.333 µM | 0.586 ± 0.023
[2], 10 µM | 0.396 ± 0.034
[3], 0.00017 µM | 0.864 ± 0.052
[3], 0.00051 µM | 0.723 ± 0.024
[3], 0.00152 µM | 0.577 ± 0.027
[3], 0.00457 µM | 0.547 ± 0.026
[3], 0.01372 µM | 0.487 ± 0.031
[3], 0.04115 µM | 0.448 ± 0.012
[3], 0.1235 µM | 0.415 ± 0.0084
[3], 0.3704 µM | 0.42 ± 0.022
[3], 1.111 µM | 0.419 ± 0.0095
[3], 3.333 µM | 0.415 ± 0.02
[3], 10 µM | 0.377 ± 0.0045
[4], 0.00017 µM | 1.02 ± 0.045
[4], 0.00051 µM | 1.01 ± 0.035
[4], 0.00152 µM | 1.05 ± 0.043
[4], 0.00457 µM | 1.01 ± 0.041
[4], 0.01372 µM | 0.95 ± 0.025
[4], 0.04115 µM | 0.918 ± 0.036
[4], 0.1235 µM | 0.936 ± 0.044
[4], 0.3704 µM | 0.929 ± 0.033
[4], 1.111 µM | 0.908 ± 0.039
[4], 3.333 µM | 0.8 ± 0.047
[4], 10 µM | 0.0491 ± 0.0031
[5], 0.00017 µM | 0.916 ± 0.028
[5], 0.00051 µM | 0.699 ± 0.035
[5], 0.00152 µM | 0.6325 ± 0.004
[5], 0.00457 µM | 0.597 ± 0.017
[5], 0.01372 µM | 0.537 ± 0.022
[5], 0.04115 µM | 0.495 ± 0.012
[5], 0.1235 µM | 0.477 ± 0.031
[5], 0.3704 µM | 0.472 ± 0.021
[5], 1.111 µM | 0.464 ± 0.02
[5], 3.333 µM | 0.441 ± 0.005
[5], 10 µM | 0.0134 ± 0.001
[6], 0.00017 µM | 0.908 ± 0.032
[6], 0.00051 µM | 0.865 ± 0.076
[6], 0.00152 µM | 0.771 ± 0.095
[6], 0.00457 µM | 0.745 ± 0.058
[6], 0.01372 µM | 0.687 ± 0.098
[6], 0.04115 µM | 0.656 ± 0.079
[6], 0.1235 µM | 0.625 ± 0.081
[6], 0.3704 µM | 0.568 ± 0.081
[6], 1.111 µM | 0.526 ± 0.076
[6], 3.333 µM | 0.435 ± 0.089
[6], 10 µM | 0.107 ± 0.075
[7], 0.00017 µM | 0.921 ± 0.087
[7], 0.00051 µM | 0.828 ± 0.022
[7], 0.00152 µM | 0.724 ± 0.025
[7], 0.00457 µM | 0.667 ± 0.032
[7], 0.01372 µM | 0.657 ± 0.059
[7], 0.04115 µM | 0.657 ± 0.059
[7], 0.1235 µM | 0.626 ± 0.045
[7], 0.3704 µM | 0.595 ± 0.057
[7], 1.111 µM | 0.562 ± 0.063
[7], 3.333 µM | 0.473 ± 0.076
[7], 10 µM | 0.385 ± 0.063
[8], 0.00017 µM | 1.05 ± 0.013
[8], 0.00051 µM | 1.05 ± 0.026
[8], 0.00152 µM | 1.03 ± 0.022
[8], 0.00457 µM | 1.044 ± 0.01
[8], 0.01372 µM | 1.05 ± 0.025
[8], 0.04115 µM | 1.036 ± 0.0084
[8], 0.1235 µM | 1.04 ± 0.017
[8], 0.3704 µM | 1 ± 0.033
[8], 1.111 µM | 0.96 ± 0.043
[8], 3.333 µM | 0.907 ± 0.09
[8], 10 µM | 0.0158 ± 0.00056
[9], 0.00017 µM | 0.925 ± 0.03
[9], 0.00051 µM | 0.762 ± 0.11
[9], 0.00152 µM | 0.622 ± 0.032
[9], 0.00457 µM | 0.551 ± 0.0085
[9], 0.01372 µM | 0.534 ± 0.013
[9], 0.04115 µM | 0.504 ± 0.019
[9], 0.1235 µM | 0.476 ± 0.016
[9], 0.3704 µM | 0.453 ± 0.013
[9], 1.111 µM | 0.431 ± 0.012
[9], 3.333 µM | 0.392 ± 0.014
[9], 10 µM | 0.334 ± 0.011
[10], 0.00017 µM | 0.909 ± 0.023
[10], 0.00051 µM | 0.926 ± 0.028
[10], 0.00152 µM | 0.907 ± 0.024
[10], 0.00457 µM | 0.931 ± 0.057
[10], 0.01372 µM | 0.903 ± 0.071
[10], 0.04115 µM | 0.854 ± 0.15
[10], 0.1235 µM | 0.811 ± 0.084
[10], 0.3704 µM | 0.758 ± 0.097
[10], 1.111 µM | 0.753 ± 0.029
[10], 3.333 µM | 0.739 ± 0.029
[10], 10 µM | 0.388 ± 0.11
[11], 0.00017 µM | 1.06 ± 0.057
[11], 0.00051 µM | 1.04 ± 0.038
[11], 0.00152 µM | 0.956 ± 0.075
[11], 0.00457 µM | 0.919 ± 0.05
[11], 0.01372 µM | 0.799 ± 0.027
[11], 0.04115 µM | 0.711 ± 0.029
[11], 0.1235 µM | 0.752 ± 0.051
[11], 0.3704 µM | 0.79 ± 0.026
[11], 1.111 µM | 0.767 ± 0.038
[11], 3.333 µM | 0.767 ± 0.015
[11], 10 µM | -0.00523 ± 0.0025
[12], 0.00017 µM | 0.85 ± 0.035
[12], 0.00051 µM | 0.805 ± 0.063
[12], 0.00152 µM | 0.759 ± 0.04
[12], 0.00457 µM | 0.682 ± 0.037
[12], 0.01372 µM | 0.643 ± 0.063
[12], 0.04115 µM | 0.594 ± 0.026
[12], 0.1235 µM | 0.569 ± 0.045
[12], 0.3704 µM | 0.553 ± 0.041
[12], 1.111 µM | 0.516 ± 0.048
[12], 3.333 µM | 0.518 ± 0.031
[12], 10 µM | 0.461 ± 0.015
